{"source": "ChEMBL document CHEMBL4002635", "about": "“A novel monoterpenoid indole alkaloid with anticancer activity from Melodinus khasianus” (Bioorg Med Chem Lett, 2017)", "key": {"PC-3 [1]": {"tested_on": "PC-3", "assay": "Induction of apoptosis in human PC3 cells assessed as increase in caspase-3 protein expression after 48 hrs by Western blot method", "format": "functional, cell-based"}, "PC-3 [2]": {"tested_on": "PC-3", "assay": "Induction of apoptosis in human PC3 cells assessed as caspase 3A negative cells at 0.1 uM after 24 hrs by flow cytometry (reference value: 97.5%)", "format": "functional"}, "PC-3 [3]": {"tested_on": "PC-3", "assay": "Induction of apoptosis in human PC3 cells assessed as caspase 3A negative cells at 1 uM after 24 hrs by flow cytometry (reference value: 97.5%)", "format": "functional"}, "PC-3 [4]": {"tested_on": "PC-3", "assay": "Induction of apoptosis in human PC3 cells assessed as necrotic cells at 10 uM after 24 hrs by Annexin-V FITC/7-AAD staining based flow cytometry (reference value: 0.02%)", "format": "functional"}, "PC-3 [5]": {"tested_on": "PC-3", "assay": "Induction of apoptosis in human PC3 cells assessed as increase in active caspase 3A after 24 hrs by flow cytometry", "format": "functional, cell-based"}, "PC-3 [6]": {"tested_on": "PC-3", "assay": "Induction of apoptosis in human PC3 cells assessed as necrotic cells at 0.1 uM after 24 hrs by Annexin-V FITC/7-AAD staining based flow cytometry (reference value: 0.02%)", "format": "functional"}, "PC-3 [7]": {"tested_on": "PC-3", "assay": "Induction of apoptosis in human PC3 cells assessed as caspase 3A positive cells at 1 uM after 24 hrs by flow cytometry (reference value: 2.45%)", "format": "functional"}, "MDA-MB-231": {"tested_on": "MDA-MB-231", "assay": "Antiproliferative activity against human MDA-MB-231 cells after 48 hrs by MTT assay", "format": "functional, cell-based", "conditions": "MDA-MB-231, 48 h"}, "PC-3 [8]": {"tested_on": "PC-3", "assay": "Induction of apoptosis in human PC3 cells assessed as caspase 3A positive cells at 0.1 uM after 24 hrs by flow cytometry (reference value: 2.45%)", "format": "functional"}, "K562": {"tested_on": "K562", "assay": "Antiproliferative activity against human K562 cells after 48 hrs by MTT assay", "format": "functional, cell-based", "conditions": "K562, 48 h"}, "PC-3 [9]": {"tested_on": "PC-3", "assay": "Induction of apoptosis in human PC3 cells assessed as live cells at 1 uM after 24 hrs by Annexin-V FITC/7-AAD staining based flow cytometry (reference value: 98.8%)", "format": "functional"}, "PC-3 [10]": {"tested_on": "PC-3", "assay": "Induction of apoptosis in human PC3 cells assessed as downregulation of Bcl2 protein expression after 48 hrs by Western blot method", "format": "functional, cell-based"}, "PC-3 [11]": {"tested_on": "PC-3", "assay": "Induction of apoptosis in human PC3 cells assessed as caspase 3A positive cells at 10 uM after 24 hrs by flow cytometry (reference value: 2.45%)", "format": "functional"}, "PC-3 [12]": {"tested_on": "PC-3", "assay": "Induction of apoptosis in human PC3 cells assessed as live cells at 10 uM after 24 hrs by Annexin-V FITC/7-AAD staining based flow cytometry (reference value: 98.8%)", "format": "functional"}, "PC-3 [13]": {"tested_on": "PC-3", "assay": "Antiproliferative activity against human PC3 cells after 48 hrs by MTT assay", "format": "functional, cell-based", "conditions": "PC-3, 48 h"}, "PC-3 [14]": {"tested_on": "PC-3", "assay": "Induction of apoptosis in human PC3 cells assessed as early apoptotic cells at 0.1 uM after 24 hrs by Annexin-V FITC/7-AAD staining based flow cytometry (reference value: 0.1%)", "format": "functional"}, "PC-3 [15]": {"tested_on": "PC-3", "assay": "Induction of apoptosis in human PC3 cells assessed as caspase 3A negative cells at 10 uM after 24 hrs by flow cytometry (reference value: 97.5%)", "format": "functional"}, "PC-3 [16]": {"tested_on": "PC-3", "assay": "Induction of apoptosis in human PC3 cells assessed as late apoptotic cells at 10 uM after 24 hrs by Annexin-V FITC/7-AAD staining based flow cytometry (reference value: 0.31%)", "format": "functional"}, "PC-3 [17]": {"tested_on": "PC-3", "assay": "Induction of apoptosis in human PC3 cells assessed as late apoptotic cells at 0.1 uM after 24 hrs by Annexin-V FITC/7-AAD staining based flow cytometry (reference value: 0.31%)", "format": "functional"}, "PC-3 [18]": {"tested_on": "PC-3", "assay": "Induction of apoptosis in human PC3 cells assessed as early apoptotic cells at 10 uM after 24 hrs by Annexin-V FITC/7-AAD staining based flow cytometry (reference value: 0.1%)", "format": "functional"}, "PC-3 [19]": {"tested_on": "PC-3", "assay": "Induction of apoptosis in human PC3 cells assessed as increase in p53 protein expression after 48 hrs by Western blot method", "format": "functional, cell-based"}, "PC-3 [20]": {"tested_on": "PC-3", "assay": "Induction of apoptosis in human PC3 cells assessed as late apoptotic cells at 1 uM after 24 hrs by Annexin-V FITC/7-AAD staining based flow cytometry (reference value: 0.31%)", "format": "functional"}, "A549": {"tested_on": "A549", "assay": "Antiproliferative activity against human A549 cells after 48 hrs by MTT assay", "format": "functional, cell-based", "conditions": "A549, 48 h"}, "PC-3 [21]": {"tested_on": "PC-3", "assay": "Induction of apoptosis in human PC3 cells assessed as necrotic cells at 1 uM after 24 hrs by Annexin-V FITC/7-AAD staining based flow cytometry (reference value: 0.02%)", "format": "functional"}, "PC-3 [22]": {"tested_on": "PC-3", "assay": "Induction of apoptosis in human PC3 cells assessed as early apoptotic cells at 1 uM after 24 hrs by Annexin-V FITC/7-AAD staining based flow cytometry (reference value: 0.1%)", "format": "functional"}, "PC-3 [23]": {"tested_on": "PC-3", "assay": "Induction of apoptosis in human PC3 cells assessed as live cells at 0.1 uM after 24 hrs by Annexin-V FITC/7-AAD staining based flow cytometry (reference value: 98.8%)", "format": "functional"}}}
{"smiles": "C/C=C(/CO)[C@H]1C[C@@H]2c3[nH]c4ccccc4c3C[C@H]3N2C(=O)[C@@]13COC", "values": [{"measurement": "Activity", "setting": "PC-3 [1]", "result": "Dose-dependent effect"}, {"measurement": "Activity", "setting": "PC-3 [2]", "result": 97.1, "unit": "%"}, {"measurement": "Activity", "setting": "PC-3 [3]", "result": 95.9, "unit": "%"}, {"measurement": "Activity", "setting": "PC-3 [4]", "result": 5.05, "unit": "%"}, {"measurement": "Activity", "setting": "PC-3 [5]", "result": "Dose-dependent effect"}, {"measurement": "Activity", "setting": "PC-3 [6]", "result": 0.85, "unit": "%"}, {"measurement": "Activity", "setting": "PC-3 [7]", "result": 4.1, "unit": "%"}, {"measurement": "IC50", "setting": "MDA-MB-231", "result": 1840, "unit": "nM"}, {"measurement": "Activity", "setting": "PC-3 [8]", "result": 2.89, "unit": "%"}, {"measurement": "IC50", "setting": "K562", "result": 1220, "unit": "nM"}, {"measurement": "Activity", "setting": "PC-3 [9]", "result": 97.3, "unit": "%"}, {"measurement": "Activity", "setting": "PC-3 [10]", "result": "Dose-dependent effect"}, {"measurement": "Activity", "setting": "PC-3 [11]", "result": 10.9, "unit": "%"}, {"measurement": "Activity", "setting": "PC-3 [12]", "result": 79.7, "unit": "%"}, {"measurement": "IC50", "setting": "PC-3 [13]", "result": 740, "unit": "nM"}, {"measurement": "Activity", "setting": "PC-3 [14]", "result": 0.27, "unit": "%"}, {"measurement": "Activity", "setting": "PC-3 [15]", "result": 89.1, "unit": "%"}, {"measurement": "Activity", "setting": "PC-3 [16]", "result": 8.97, "unit": "%"}, {"measurement": "Activity", "setting": "PC-3 [17]", "result": 0.56, "unit": "%"}, {"measurement": "Activity", "setting": "PC-3 [18]", "result": 6.25, "unit": "%"}, {"measurement": "Activity", "setting": "PC-3 [19]", "result": "Dose-dependent effect"}, {"measurement": "Activity", "setting": "PC-3 [20]", "result": 1.14, "unit": "%"}, {"measurement": "IC50", "setting": "A549", "result": 3260, "unit": "nM"}, {"measurement": "Activity", "setting": "PC-3 [21]", "result": 0.87, "unit": "%"}, {"measurement": "Activity", "setting": "PC-3 [22]", "result": 0.7, "unit": "%"}, {"measurement": "Activity", "setting": "PC-3 [23]", "result": 98.3, "unit": "%"}]}
